Results: publication PMC10136189, “A Tale of 12 Tails: Katanin Severing Activity Affected by Carboxy-Terminal Tail Sequences” (Biomolecules, 2023)

Legend:
human GFP-katanin p60 [1] = biological target: T1, human GFP-katanin p60 (Homo sapiens, UniProt O75449); experiment: in vitro microtubule severing assay (loss of microtubule polymer); format: biochemical; conditions: for inhibition of katanin severing of microtubules (loss of polymer) / relative potency as inhibitor of katanin binding and severing (comparison in words): inhibitor 0-2 μM; for inhibition of katanin severing of microtubules (loss of polymer): taxol-stabilized rhodamine microtubules, Katanin Activity Buffer pH 7.7, 2 mM ATP, 5 min movies; for relative potency as inhibitor of katanin binding and severing (comparison in words): compared with other CTTs or whole tubulin
T1 construct: made in house; host or cells: Escherichia coli BL21(DE3)
T1 sequence (O75449 whole entry): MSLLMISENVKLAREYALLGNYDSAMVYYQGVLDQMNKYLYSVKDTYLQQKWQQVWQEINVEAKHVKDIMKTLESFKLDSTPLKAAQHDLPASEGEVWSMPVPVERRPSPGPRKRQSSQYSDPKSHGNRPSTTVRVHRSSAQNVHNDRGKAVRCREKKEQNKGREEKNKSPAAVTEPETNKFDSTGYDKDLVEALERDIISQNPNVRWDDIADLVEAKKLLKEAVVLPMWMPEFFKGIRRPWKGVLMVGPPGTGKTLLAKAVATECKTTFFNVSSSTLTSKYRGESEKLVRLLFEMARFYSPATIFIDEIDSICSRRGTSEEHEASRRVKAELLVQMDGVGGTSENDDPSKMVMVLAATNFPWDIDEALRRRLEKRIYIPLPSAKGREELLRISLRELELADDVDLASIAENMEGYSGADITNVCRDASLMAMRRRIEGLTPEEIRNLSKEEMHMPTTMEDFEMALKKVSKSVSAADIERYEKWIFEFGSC
Method: (§1) In this work, we use the in vitro microtubule severing assay to quantitatively characterize the microtubule binding and severing ability of human GFP-katanin p60 in the presence of different CTT sequences. First, we ensure that our human GFP-katanin p60 can robustly and reproducibly sever microtubules and completely remove all polymer within 3–5 min (Figure 1A). As each katanin prep has slightly different activity and the activity can fluctuate (Supplemental Figure S1), we perform control experiments each day to determine the optimal katanin concentration needed and to serve as a control without added inhibitors (Figure 1A). For simplicity we use “katanin” to refer to human GFP-katanin p60 for the remainder of this manuscript.
(§2) Flow chambers with 10 μL channels were made by adhering double-stick tape (3M, St. Paul, MN, USA) to a microscope slide and attaching a silanized coverslip cross-wise. Silanized coverslips were UVO sterilized, cleaned with rinses of acetone, ethanol, 0.1 M KOH, and ddH20 before coating with PlusOne Repel-Silane 2% dimethyldichlorosilane (Cytiva, Marlborough, MA, USA). Samples were made in the chambers by flowing through the chamber using a pipette and filter paper to wick from the other side. For severing assays, we first flowed 5% MAB1864 tubulin YL ½ antibody (Merck-Millipore, Billerica, MA, USA) in PEM-100 for three minutes to provide a binding site for microtubules. Second, we flowed 5% (w/v) Pluronic F127 to act as a polymer brush to block the surface, allowing three minutes for incubation. Next, we flowed 10% rhodamine-labeled microtubules diluted 1:100 (final tubulin concentration 454 nM) and allowed them to adhere for three minutes. During the incubation, an aliquot of katanin was rapidly defrosted from −80 °C and diluted to assay concentration. The chamber was then washed with Katanin Activity Buffer (20 mM HEPES pH 7.7, 10% glycerol, 2 mM MgCl2, 2 mM ATP, 0.025 mg/mL BSA, 0.05% F127, 10 mM dithiothreitol (DTT), 15 mg/mL glucose, 0.15 mg/mL catalase, […]) to remove excess unadhered microtubules. The chamber was then situated on the microscope to find a good field for the assay before flowing Katanin Activity Buffer with GFP-katanin and CTT tails at their respective concentrations.
(§3) Imaging was performed using epifluorescence and total internal reflection (TIRF) with a home-built laser illumination system around a Nikon Ti-E microscope (Nikon USA, Melville, NY, USA). Epifluorescence was used to image rhodamine microtubules in the red channel, and TIRF was used to image GFP-katanin illuminating with a 488 nm laser. Images were collected with a 60x, oil-coupled TIRF objective with a numerical aperture of 1.49 (Nikon USA, Melville, NY, USA). The two-color imaging was performed using shuttering the red channel (400–800 ms exposure) and green channel (70–200 ms exposure) sequentially. The 5 min movies recorded with 3 s intervals using Nikon Elements software (Nikon USA, Melville, NY, USA) driving an Ixon EMCCD camera (Andor, Belfast, Northern Ireland) with a final pixel size of 160 nm. Movie data were saved as a 16-bit time series as nd2 files with metadata. Movies were started recording before the GFP-katanin mixture was flowed while imaging. After the 5 min, a new field of view was imaged to ensure that the loss of microtubule polymer was universal in the chamber and not due to imaging conditions.
(§4) Each of the 64 treatments were run two to three times for replication and for obtaining 15–20 MTs for analysis. Four control chambers were run each day to ensure chamber activity was caused by the respective treatment conditions. […] Next, the concentration needed to sever microtubules within 2–3 min is determined in the presence of ATP. Once the optimal katanin concentration is determined, the assay is repeated in the absence of ATP to again test the imaging conditions in the presence of a GFP-katanin binding to microtubules. […]

human GFP-katanin p60 [2] = biological target: T1, human GFP-katanin p60; experiment: GFP-katanin binding to microtubules (TIRF intensity) in the severing assay; conditions: inhibitor 0-2 μM; GFP intensity normalized to same day control without inhibitor; pH 7.7, 2 mM ATP
Method: as §1, §2
as §3, with “Movie data were saved as a 16-bit time series as nd2 files with metadata. Movies were started recording before the GFP-katanin mixture was flowed while imaging. After the 5 min, a new field of view was imaged to ensure that the loss of microtubule polymer was universal in the chamber and not due to imaging conditions.” left out
as §4, with “analysis.” for “analysis. Four control chambers were run each day to ensure chamber activity was caused by the respective treatment conditions.”

## A T A DDDDDDDDDD [D10]
Human GFP-katanin p60 [1]
  inhibition of katanin severing of microtubules (loss of polymer): can inhibit
Human GFP-katanin p60 [2]
  inhibition of GFP-katanin binding to microtubules: can inhibit

## A T A DE Q G E F EEEE G EDE A [Beta2 (TUBB2A)]
Human GFP-katanin p60 [1]
  inhibition of katanin severing of microtubules (loss of polymer): more beta2a CTT is needed to inhibit
Human GFP-katanin p60 [2]
  inhibition of GFP-katanin binding to microtubules: more beta2a CTT is needed to inhibit

## A T A EEEED F G EE A EEE A [Beta5 (TUNN/TUBB5)]
Human GFP-katanin p60 [1]; listed as beta5 CTT
  relative potency as inhibitor of katanin binding and severing (comparison in words): most potent inhibitor of the CTTs we tested
Human GFP-katanin p60 [1]; listed as beta5 tubulin CTT
  relative potency as inhibitor of katanin binding and severing (comparison in words): better at inhibiting katanin than whole tubulin
Human GFP-katanin p60 [1]
  inhibition of katanin severing of microtubules (loss of polymer): severing is inhibited

## A T A EEEED F G EE A EEE Y [Beta5-A+Y, artificial beta5 CTT with the last amino acid (A) replaced with a tyrosine]
Human GFP-katanin p60 [1]
  inhibition of katanin severing of microtubules (loss of polymer): far less potent as a katanin inhibitor
Human GFP-katanin p60 [2]
  inhibition of GFP-katanin binding to microtubules: does not affect katanin binding

## A T A EEEED M Y EDDDEE S E A Q G P K [Beta3 (TUBB3)]
Human GFP-katanin p60 [1]
  inhibition of katanin severing of microtubules (loss of polymer): cannot inhibit katanin severing
Human GFP-katanin p60 [2]
  inhibition of GFP-katanin binding to microtubules: little inhibition of GFP-katanin binding

## A T A EEEEEEEEEE [E10]
Human GFP-katanin p60 [1]
  inhibition of katanin severing of microtubules (loss of polymer): can inhibit
Human GFP-katanin p60 [2]
  inhibition of GFP-katanin binding to microtubules: can inhibit

## DSFEEENEGEEF [alpha8, human alpha8 tubulin tail, only alpha tail with a C-terminal F; hydrophobicity calculated, not tested]
Human GFP-katanin p60 [1]; prediction from hydrophobicity and C-terminal phenylalanine, not tested
  predicted ability to inhibit katanin severing: unable to inhibit katanin severing
